Assay results reported in patent US10717733B2, “Haloallylamine indole and azaindole derivative inhibitors of lysyl oxidases and uses thereof” (PHARMAXIS LTD., priority 2016, dated 2020).
Counter-ions that a name gives are not always drawn.

Columns and labels:
Assay type in all cases: biochemical
Recombinant human MAO-B = Recombinant human MAO-B (Homo sapiens (Human), UniProt P27338); test: Inhibition of human recombinant MAO-B; conditions: benzylamine 100 μM
Outline: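 Recombinant human MAO-B used as enzyme source (0.06 mg/mL, stated concentration). Run as for the human SSAO/VAP-1 assay, except benzylamine substrate at 100 μM.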

Bovine LOX = Bovine LOX (Bos taurus (Bovine), UniProt P33072); test: LOX inhibition, peroxidase-coupled Amplex Red amine oxidase assay; conditions: 30 min preincubation at 37° C., putrescine substrate
Sequence of Bovine LOX (P33072 170-418): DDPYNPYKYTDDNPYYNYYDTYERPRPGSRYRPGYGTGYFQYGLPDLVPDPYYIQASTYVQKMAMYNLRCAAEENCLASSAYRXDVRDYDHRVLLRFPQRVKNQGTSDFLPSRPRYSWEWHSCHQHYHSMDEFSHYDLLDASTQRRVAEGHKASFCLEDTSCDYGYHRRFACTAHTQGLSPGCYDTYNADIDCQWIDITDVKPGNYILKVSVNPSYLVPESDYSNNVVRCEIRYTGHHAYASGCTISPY
Outline: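 Bovine LOX in 1.2 M urea, 50 mM sodium borate pH 8.2 with 1 μM mofegiline and 0.5 mM pargyline; putrescine at twice KM (e.g. 20 mM for LOX) with Amplex Red/HRP. Fluorescence (ex 565/em 590 nm) read kinetically over 30 min at 37–45 °C; IC50 from slopes.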

[1] = target: human recombinant SSAO/VAP-1 (Homo sapiens (Human), UniProt Q16853); test: Inhibition of human recombinant SSAO/VAP-1 amine oxidase activity; conditions: 30 min preincubation at 37° C., 600 μM benzylamine
Sequence of human recombinant SSAO/VAP-1 (Q16853 34-763): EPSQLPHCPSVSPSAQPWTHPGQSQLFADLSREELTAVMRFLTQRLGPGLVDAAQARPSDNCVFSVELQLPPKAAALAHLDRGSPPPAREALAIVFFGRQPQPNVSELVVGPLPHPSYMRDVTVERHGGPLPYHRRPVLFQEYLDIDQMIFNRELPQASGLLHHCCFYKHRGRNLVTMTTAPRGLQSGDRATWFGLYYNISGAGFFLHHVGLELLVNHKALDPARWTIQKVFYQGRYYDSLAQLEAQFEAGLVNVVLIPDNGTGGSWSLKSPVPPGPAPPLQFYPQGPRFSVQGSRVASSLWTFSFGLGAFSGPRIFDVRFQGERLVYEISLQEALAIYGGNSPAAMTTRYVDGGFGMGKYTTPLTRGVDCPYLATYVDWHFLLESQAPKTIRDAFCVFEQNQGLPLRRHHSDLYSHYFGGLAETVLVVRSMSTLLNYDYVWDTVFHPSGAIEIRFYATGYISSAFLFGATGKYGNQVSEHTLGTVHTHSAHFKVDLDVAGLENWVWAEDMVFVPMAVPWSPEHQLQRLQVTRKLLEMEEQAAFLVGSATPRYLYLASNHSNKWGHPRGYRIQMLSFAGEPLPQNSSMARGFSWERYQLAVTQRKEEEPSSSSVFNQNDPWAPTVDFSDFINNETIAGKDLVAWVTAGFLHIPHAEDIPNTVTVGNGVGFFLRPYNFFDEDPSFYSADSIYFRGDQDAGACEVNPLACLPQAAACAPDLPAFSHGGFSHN
Outline: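 Purified SSAO/VAP-1 (residues 34-763, expressed in CHO Lec 8 cells; 0.25 μg/mL) preincubated 30 min at 37° C with compound in 0.1 M sodium phosphate pH 7.4. Reaction mix of 600 μM benzylamine, 120 μM Amplex Red and 1.5 U/mL HRP added; fluorescence (ex 565/em 590 nm) read every 2.5 min for 30 min; IC50 from kinetic slopes over 4-11 point curves.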

Human LOXL2 = Human LOXL2 (Homo sapiens (Human), UniProt Q9Y4K0); test: LOXL2 inhibition, peroxidase-coupled Amplex Red amine oxidase assay; conditions: 30 min preincubation at 37° C., putrescine substrate
Sequence of Human LOXL2 (Q9Y4K0 26-774): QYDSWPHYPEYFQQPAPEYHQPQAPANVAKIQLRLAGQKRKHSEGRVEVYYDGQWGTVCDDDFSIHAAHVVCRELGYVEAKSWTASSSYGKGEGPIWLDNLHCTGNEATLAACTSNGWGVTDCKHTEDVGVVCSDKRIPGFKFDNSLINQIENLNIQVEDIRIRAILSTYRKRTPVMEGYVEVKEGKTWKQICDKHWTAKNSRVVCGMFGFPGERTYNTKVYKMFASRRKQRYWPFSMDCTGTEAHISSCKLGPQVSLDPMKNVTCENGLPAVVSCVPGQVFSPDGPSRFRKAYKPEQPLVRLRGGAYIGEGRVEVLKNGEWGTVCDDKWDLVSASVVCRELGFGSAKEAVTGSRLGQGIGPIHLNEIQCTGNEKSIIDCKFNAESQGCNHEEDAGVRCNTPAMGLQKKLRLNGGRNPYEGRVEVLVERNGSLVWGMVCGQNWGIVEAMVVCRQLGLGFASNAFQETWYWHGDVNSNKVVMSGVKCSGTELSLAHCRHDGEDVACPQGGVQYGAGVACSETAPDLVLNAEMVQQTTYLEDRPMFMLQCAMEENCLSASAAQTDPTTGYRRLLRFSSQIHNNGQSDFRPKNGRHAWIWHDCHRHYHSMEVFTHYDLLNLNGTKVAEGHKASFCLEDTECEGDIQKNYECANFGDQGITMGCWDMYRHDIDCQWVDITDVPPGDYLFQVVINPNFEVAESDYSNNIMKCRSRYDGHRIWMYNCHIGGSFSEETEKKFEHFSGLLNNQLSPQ
Outline: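 Enzyme in 1.2 M urea, 50 mM sodium borate pH 8.2 with 1 μM mofegiline and 0.5 mM pargyline, preincubated 30 min at 37° C with compound (11-point CRC). Putrescine at twice KM (10 mM for LOXL2) with Amplex Red/HRP; fluorescence (ex 565, em 590) read kinetically 30 min; IC50 from slopes.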

Sequence of Recombinant human MAO-B (P27338 whole entry): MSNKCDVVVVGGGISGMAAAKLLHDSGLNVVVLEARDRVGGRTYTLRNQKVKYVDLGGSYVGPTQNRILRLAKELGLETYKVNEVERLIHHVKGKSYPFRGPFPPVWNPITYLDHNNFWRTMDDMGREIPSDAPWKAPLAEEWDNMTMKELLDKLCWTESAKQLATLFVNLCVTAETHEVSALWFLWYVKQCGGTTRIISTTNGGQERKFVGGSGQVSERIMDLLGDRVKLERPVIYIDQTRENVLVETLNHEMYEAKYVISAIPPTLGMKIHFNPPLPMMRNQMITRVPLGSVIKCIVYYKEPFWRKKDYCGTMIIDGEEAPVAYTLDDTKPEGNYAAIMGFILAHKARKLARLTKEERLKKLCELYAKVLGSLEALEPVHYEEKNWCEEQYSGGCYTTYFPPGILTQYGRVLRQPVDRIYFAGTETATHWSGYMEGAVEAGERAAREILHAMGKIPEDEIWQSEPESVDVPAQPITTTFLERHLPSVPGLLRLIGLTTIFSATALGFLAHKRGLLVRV

Structure (SMILES) | IC50 (Recombinant human MAO-B) [µM] | IC50 (Bovine LOX) [µM] | IC50 [1] [µM] | IC50 (Human LOXL2) [µM]
Cc1c(-c2cccc(S(=O)(=O)N(C)C)c2)c2nc(C(=O)N(C)C)ccc2n1C/C(F)=C/CN [Compound 44, (Z)-1-(4-amino-2-fluorobut-2-en-1-yl)-3-(3-(N,N-dimethylsulfamoyl)phenyl)-N,N,2-trimethyl-1H-pyrrolo[3,2-b]pyridine-5-carboxamide] | > 3 | > 0.3 | > 3 | < 0.3
COC(=O)c1ccc2c(c1)c(-c1cccc(S(=O)(=O)N(C)C)c1)c(C)n2C/C(F)=C/CN [Compound 5, Hydrochloride] | > 3 | > 0.3 | > 3 | < 0.3
Cc1c(-c2ccc(F)cc2)c2cc(S(N)(=O)=O)ccc2n1C/C(F)=C/CN [Compound 95, (Z)-1-(4-amino-2-fluorobut-2-en-1-yl)-3-(4-fluorophenyl)-2-methyl-1H-indole-5-sulfonamide] | > 3 | > 0.3 | > 3 | < 0.3
Cc1c(-c2cccc(S(=O)(=O)N(C)C)c2)c2nc(C(C)(F)F)ccc2n1C/C(F)=C/CN [Compound 111, (Z)-3-(1-(4-amino-2-fluorobut-2-en-1-yl)-5-(1,1-difluoroethyl)-2-methyl-1H-pyrrolo[3,2-b]pyridin-3-yl)-N,N-dimethylbenzenesulfonamide Dihydrochloride] | > 3 | > 0.3 | > 3 | < 0.3
Cc1cc(-c2c(C)n(C/C(F)=C/CN)c3ccc(NS(C)(=O)=O)cc23)cc(C)n1 [Compound 102, (Z)—N-(1-(4-amino-2-fluorobut-2-en-1-yl)-3-(2,6-dimethylpyridin-4-yl)-2-methyl-1H-indol-5-yl)methanesulfonamide Dihydrochloride] | > 3 | > 0.3 | > 3 | < 0.3
Cc1c(-c2ccc(S(=O)(=O)N(C)C)cc2)c2ccccc2n1C/C(F)=C/CN [Compound 3, (Z)-4-(1-(4-amino-2-fluorobut-2-en-1-yl)-2-methyl-1H-indol-3-yl)-N,N-dimethylbenzenesulfonamide] | > 3 | > 0.3 | > 3 | < 0.3
Cc1c(-c2cccc(S(=O)(=O)N(C)C)c2)c2cc(S(C)(=O)=O)ccc2n1C/C(F)=C/CN [Compound 97, (Z)-3-(1-(4-amino-2-fluorobut-2-en-1-yl)-2-methyl-5-(methylsulfonyl)-1H-indol-3-yl)-N,N-dimethylbenzenesulfonamide] | > 3 | > 0.3 | > 3 | < 0.3
Cc1c(-c2cccc(S(=O)(=O)N(C)C)c2)c2nc(F)ccc2n1C/C(F)=C/CN [Compound 109, (Z)-3-(1-(4-amino-2-fluorobut-2-en-1-yl)-5-fluoro-2-methyl-1H-pyrrolo[3,2-b]pyridin-3-yl)-N,N-dimethylbenzenesulfonamide] | > 3 | > 0.3 | > 3 | < 0.3
COc1ccc2c(n1)c(-c1cccc(S(=O)(=O)N(C)C)c1)c(C)n2C/C(F)=C/CN [Compound 61, (Z)-3-(1-(4-amino-2-fluorobut-2-en-1-yl)-5-methoxy-2-methyl-1H-pyrrolo[3,2-b]pyridin-3-yl)-N,N-dimethylbenzenesulfonamide Dihydrochloride] | > 3 | > 0.3 | > 3 | < 0.3
CCOC(=O)c1ccc2c(c1)c(-c1cccc(C(C)(C)C)c1)c(C)n2C/C(F)=C/CN [Compound 30, ethyl (Z)-1-(4-amino-2-fluorobut-2-en-1-yl)-3-(3-(tert-butyl)phenyl)-2-methyl-1H-indole-5-carboxylate] | > 3 | > 0.3 | > 3 | < 0.3
Cc1c(-c2cccc(S(=O)(=O)N(C)C)c2)c2cc(NS(C)(=O)=O)ccc2n1C/C(F)=C/CN [Compound 104, (Z)-3-(1-(4-amino-2-fluorobut-2-en-1-yl)-2-methyl-5-(methylsulfonamido)-1H-indol-3-yl)-N,N-dimethylbenzenesulfonamide Hydrochloride] | > 3 | > 0.3 | > 3 | < 0.3
Cc1c(-c2cccc(S(C)(=O)=O)c2)c2cc(C(=O)N(C)C)ccc2n1C/C(F)=C/CN [Compound 50, (Z)-1-(4-amino-2-fluorobut-2-en-1-yl)-N,N,2-trimethyl-3-(3-(methylsulfonyl)phenyl)-1H-indole-5-carboxamide] | > 3 | > 0.3 | > 3 | < 0.3
CCOC(=O)c1ccc2c(c1)c(-c1cccc(C(=O)N(C)C)c1)c(C)n2C/C(F)=C/CN [Compound 15, (Z)-ethyl 1-(4-amino-2-fluorobut-2-en-1-yl)-3-(3-(dimethylcarbamoyl)phenyl)-2-methyl-1H-indole-5-carboxylate Hydrochloride] | > 3 | > 0.3 | > 3 | < 0.3
Cc1c(-c2cccc(C(F)(F)F)c2)c2cc(C(=O)N(C)C)ccc2n1C/C(F)=C/CN [Compound 56, (Z)-1-(4-amino-2-fluorobut-2-en-1-yl)-N,N,2-trimethyl-3-(3-(trifluoromethyl)phenyl)-1H-indole-5-carboxamide] | > 3 | > 0.3 | > 3 | < 0.3
Cc1c(-c2cccc(S(N)(=O)=O)c2)c2cc(C(=O)N(C)C)ccc2n1C/C(F)=C/CN [Compound 54, (Z)-1-(4-amino-2-fluorobut-2-en-1-yl)-N,N,2-trimethyl-3-(3-sulfamoylphenyl)-1H-indole-5-carboxamide] | > 3 | > 0.3 | > 3 | < 0.3
Cc1c(-c2cncc(S(=O)(=O)N(C)C)c2)c2ccccc2n1C/C(F)=C/CN [Compound 63, (Z)-5-(1-(4-amino-2-fluorobut-2-en-1-yl)-2-methyl-1H-indol-3-yl)-N,N-dimethylpyridine-3-sulfonamide] | > 3 | > 0.3 | > 3 | < 0.3
Cc1cc(-c2c(C)n(C/C(F)=C/CN)c3ccc(S(C)(=O)=O)cc23)cc(C)n1 [Compound 89, (Z)-4-(3-(2,6-dimethylpyridin-4-yl)-2-methyl-5-(methylsulfonyl)-1H-indol-1-yl)-3-fluorobut-2-en-1-amine] | > 3 | > 0.3 | > 3 | < 0.3
CCOC(=O)c1cc2c(-c3cccc(S(=O)(=O)N(C)C)c3)c(C)n(C/C(F)=C/CN)c2cc1F [Compound 22, (Z)-ethyl 1-(4-amino-2-fluorobut-2-en-1-yl)-3-(3-(N,N-dimethylsulfamoyl)phenyl)-6-fluoro-2-methyl-1H-indole-5-carboxylate] | > 3 | > 0.3 | > 3 | < 0.3
Cc1c(-c2cccc(S(=O)(=O)N(C)C)c2)c2cccnc2n1C/C(F)=C/CN [Compound 4, (Z)-3-(1-(4-amino-2-fluorobut-2-en-1-yl)-2-methyl-1H-pyrrolo[2,3-b]pyridin-3-yl)-N,N-dimethylbenzenesulfonamide] | > 3 | > 0.3 | > 3 | < 0.3
Cc1c(-c2ccncc2)c2cc(C(=O)NC(C)(C)C)ccc2n1C/C(F)=C/CN [Compound 91, (Z)-1-(4-amino-2-fluorobut-2-en-1-yl)-N-(tert-butyl)-2-methyl-3-(pyridin-4-yl)-1H-indole-5-carboxamide] | > 3 | > 0.3 | > 3 | < 0.3
Cc1c(-c2cccc(C(C)(C)C)c2)c2cc(C(=O)O)ccc2n1C/C(F)=C/CN [Compound 31, (Z)-1-(4-amino-2-fluorobut-2-en-l-yl)-3-(3-(tert-butyl)phenyl)-2-methyl-1H-indole-5-carboxylic acid, Hydrochloride] | > 3 | > 0.3 | > 3 | < 0.3
Cc1cc(-c2c(C)n(C/C(F)=C/CN)c3ccc(S(C)(=O)=O)cc23)ccn1 [Compound 94, (Z)-3-fluoro-4-(2-methyl-3-(2-methylpyridin-4-yl)-5-(methylsulfonyl)-1H-indol-1-yl)but-2-en-l-amine, Dihydrochloride] | > 3 | > 0.3 | > 3 | < 0.3
Cc1c(-c2ccccc2)c2cc(S(=O)(=O)N(C)C)ccc2n1C/C(F)=C/CN [Compound 86, (Z,)-1-(4-amino-2-fluorobut-2-en-1-yl)-N,N,2-trimethyl-3-phenyl-1H-indole-5-sulfonamide] | > 3 | > 0.3 | > 3 | < 0.3
Cc1c(-c2cccc(S(=O)(=O)N(C)C)c2)c2cc(Cl)ccc2n1C/C(F)=C/CN [Compound 62, (Z)-3-(1-(4-amino-2-fluorobut-2-en-1-yl)-5-chloro-2-methyl-1H-indol-3-yl)-N,N-dimethylbenzenesulfonamide] | > 3 | > 0.3 | > 3 | < 0.3
